Reference: US9801949B2, “Combinations of albumin-based drug delivery systems” (KTB TUMORFORSCHUNGSGESELLSCHAFT MBH, priority 2012, dated 2017)
Marks after values point to notes of the source that are not given here. Numbered stars: 1 amine (or outer) side, 2 acyl side, 3 side chain; on linkers, the order of the positions; unused ones are H or OH. Square brackets hold non-standard residues; d marks the D form. Side chains are listed from the residue outwards. Peptide text beside a SMILES is read from it. * marks the point of attachment. DAMPA = CN(Cc1cnc2nc(N)nc(N)c2n1)c1ccc(C(=O)*)cc1; Hexanoyl(6-maleimido) = O=C1C=CC(=O)N1CCCCCC(=O)*; γGlu = O=C(O)[C@H](CCC(=O)[*:2])N[*:1]

Assays:
[1] = system: MiaPaCa-2 pancreatic carcinoma xenograft; details: for toxic death: 7 mice per group, i.v. on days 10, 17, 24, dose per Table 1; for antitumor efficacy (in words): MiaPaCa-2 xenograft, up to end of experiment (day 43), doses as in Table 1; for Tumor volume (day 43): s.c. MiaPaCa-2 xenografts, i.v. on days 10, 17, 24, dose per Table 1, median initial tumor volume 0.062 cm^3
Description: In vivo efficacy studies in the MiaPaCa-2 xenograft model were carried out with doxorubicin, the 6-maleimidocaproyl(hydrazone) derivative of doxorubicin (DOXO-EMCH), the albumin-binding prodrug of methotrexate AW054, a combination of the 6-maleimidocaproyl(hydrazone) derivative of doxorubicin (DOXO-EMCH) and the albumin-binding prodrug of methotrexate AW054, doxorubicin, methotrexate and a combination of doxorubicin and methotrexate.
DOXO-EMCH was dissolved in sterile 10 mM sodium phosphate, 5% D-(+)-glucose (pH 5.8) and the respective dose administered intravenously within 30 minutes after dissolution. All doses of DOXO-EMCH and AW054 administered in the studies are stated in doxorubicin and methotrexate equivalents, respectively. Adrimedac® from medac, Germany, was used as the doxorubicin reference (c=2 mg/mL). Methotrexate (Sodium salt from medac) was used as a stock solution (12.5 mg methotrexate/mL in 5% D-Glucose from Braun, sterile). The stock solution AW054 for intravenous administration was 2.0 mg AW054/mL in 5% D-Glucose from Braun, sterile.
For in vivo testing in the MiaPaCa-2 xenograft model, female NMRI: nu/nu mice (Taconic, Denmark) were used. The mice were held in individually ventilaged cages (IVC) under sterile and standardized environmental conditions (25±2° C. room temperature, 50±10% relative humidity, 12 hour light-dark-rhythm). They received autoclaved food and bedding (ssniff, Soest, Germany) and acidified (pH 4.0) drinking water ad libitum. All animal experiments were performed under the auspices of the German Animal Protection Law.
MiaPaCa-2 cells (5×10^6 cells/mouse) were transplanted subcutaneously (s.c.) into the left flank region of each mouse on day zero. Mice were randomly distributed to the experimental groups (7 mice per group). Treatment was initiated at day 10 when the tumors were grown to a size of ˜60 mm^3. Mice were treated on a weekly schedule with 3×6 mg/kg doxorubicin (MTD), 2×125 mg/kg methotrexate (MTD), 3×24 mg/kg DOXO-EMCH (doxorubicin equivalents) (MTD), 3×20 mg/kg AW054 (methotrexate equivalents) (MTD), and a combination of 3×12 mg/kg DOXO-EMCH and 3×10 mg/kg AW054 or a combination of 3×3 mg/kg doxorubicin and 3×62.5 mg/kg methotrexate. All compounds were injected once a week for three weeks (days 10, 17, 24). The injection volume was 0.2 mU20 g body weight. Tumor size was measured twice weekly with a caliper-like instrument in two dimensions. Individual tumor volumes (V) were calculated by the formula V=(length×[width]^2)/2 and related to the values on the first day of treatment (relative tumor volume, RTV). The experiment was ended on day 43. Statistical analysis was performed with the U-test (Mann and Whitney) with p<0.05. The body weight of mice was determined every 3 to 4 days.
Combination therapy with doxorubicin and methotrexate was carried out at in a three weekly schedule (i.v.) at half of their maximum tolerated dose (MTD), i.e. 3×3 mg/kg for doxorubicin and 3×62.5 mg/kg methotrexate. Both DOXO-EMCH and AW054 were administered simultaneously (i.v.) in a three weekly schedule at half of their maximum tolerated dose (MTD), i.e. 3×12 mg/kg for DOXO-EMCH (doxorubicin equivalents) and 3×10 mg/kg (methotrexate equivalents) and at their respective MTDs, i.e. 3×24 mg/kg for DOXO-EMCH (doxorubicin equivalents) and 3×20 mg/kg for AW054 (methotrexate equivalents) (see the following Table 1).

[2] = system: several xenograft and orthotopic tumor models; details: cited from earlier work
[3] = system: ovarian carcinoma xenograft model (OVCAR3); details: cited from earlier work
[4] = conjugate formed with cysteine-34 of albumin; cited from earlier work

Row | Compound | toxic death [1] | antitumor efficacy (in words) [1] | Tumor volume (day 43) [1] | efficacy compared to free doxorubicin [2] | efficacy compared to methotrexate [3] | stability of albumin conjugate in human plasma [4]
1 | COc1cccc2c1C(=O)c1c(O)c3c(c(O)c1C2=O)C[C@@](O)(C(=O)CO)C[C@@H]3O[C@H]1C[C@H](N)[C@H](O)[C@H](C)O1 [Doxorubicin, doxorubicin] | 0 | only showed moderate antitumor efficacy | 0.190 ± 0.125* cm^3 |  |  | 
2 | COc1cccc2c1C(=O)c1c(O)c3c(c(O)c1C2=O)CC(O)(C(CO)=NNC(=O)CCCCCN1C(=O)C=CC1=O)CC3OC1CC(N)C(O)C(C)O1 (centres unmarked) [DOXO-EMCH, 6-maleimidocaproyl(hydrazone) derivative of doxorubicin] |  | partial remission | 0.034 ± 0.064* cm^3 | superior efficacy over free doxorubicin |  | 
3 | C[C@@H](NC(=O)CCCCCN1C(=O)C=CC1=O)C(=O)N[C@@H](Cc1ccccc1)C(=O)N[C@@H](CCCCN)C(=O)N[C@@H](CCCCNC(=O)CC[C@H](NC(=O)c1ccc(N(C)Cc2cnc3nc(N)nc(N)c3n2)cc1)C(=O)O)C(=O)O [AW054, EMC-D-Ala-Phe-Lys-Lys(γ-MTX)-OH] ({Hexanoyl(6-maleimido)}-[dA]FKK([γGlu-DAMPA])-OH) | 0 | only showed moderate antitumor effects | 0.264 ± 0.226* cm^3 |  | superior compared to methotrexate | stable in human plasma
4 | CN(Cc1cnc2nc(N)nc(N)c2n1)c1ccc(C(=O)N[C@@H](CCC(=O)O)C(=O)O)cc1 [Methotrexate, methotrexate] | 0 | only showed moderate antitumor efficacy | 0.396 ± 0.307* cm^3 |  |  | 
